Test results taken from patent US4057530A, “2-Phenyl-indole derivatives and process for preparing the same” (priority 1974, dated 1977).

Key:
[1] = Acute toxicity by oral route in mice (LD50); type: in vivo; conditions: mouse, in vivo, gummy suspension
Protocol: (§1) The study of the acute toxicity of the stabilizers listed below was carried out by determining the dose of substance which provoked the death of 50% of the treated animals (LD50). A gummy suspension of the substance under study was administered by oral route to groups of at least ten mice and the following results were observed: […]

[2] = system: mice; assay: Acute toxicity by oral route in mice (LD50); type: in vivo; conditions: LD50 study
Protocol: as §1

[3] = Static thermostability of stabilized resin, simplified method (GARDNER sub-scale), Compound A; conditions: 210° C; for Colouration given to the polymer: 0 and 3 min
Protocol: (§2) The stabilizing power of the substances of the invention was studied from two points of view:
(§3) These studies were performed with six different formulae of vinyl resins (hereinafter referred to as Compounds).
(§4) The different compounds were mixed and calendered in a mixer of which the cylinders were heated to 160° C. The rigid sheets so obtained were then heated in an oven to a temperature between 180° C and 215° C, until incipient carbonization.
(§5) A stove with rotating drums, ventilated and equipped with a thermostat was used for this operation. In the trials described hereunder, the behaviour of a sheet containing the stabilizer to be tested was compared to that of a sheet of the same formula but containing 2-phenyl-indole as stabilizer.
2. It is also possible to use a simplified method which is more rapid and with which valid results are also obtained: a reference scale is drawn up with sheets of thermally treated polyvinyl chloride, of which the colourations have been definitely determined in GARDNER degrees as above. A GARDNER sub-scale is thus obtained in polyvinyl chloride sheets which can be directly compared to the sheets to be tested without using the comparator.
Finally, trials were carried out with Stabilizers 15, 16 and 17 and with 2-phenyl-indole. Compound A was used and the temperature was 210° C.

[4] = Static thermostability of stabilized resin, GARDNER Scale Comparator, Compound A; conditions: 185° C
Protocol: as §2, §3, §4, §5
1. The colouration of the sheets, of which samples were removed from the stove at fixed intervals was compared to a standard scale of colouration, known as the GARDNER Scale, and expressed in terms of the reference figures of the GARDNER Scale.
Comparisons were made with a GARDNER Scale Comparator which contains 18 filters of coloured glass and which offers the possibility of observing by transparency and in a limited field of view both the sheet and the reference filters.

Compound	LD50 [1] [mg/kg]	Toxic symptoms [2]	Static thermostability compared with 2-phenyl-indole [3]	Colouration of sheet (GARDNER sub-scale) ([3]; 0 min)	Colouration of sheet (GARDNER sub-scale) ([3]; 3 min)	Colouration of sheet (GARDNER sub-scale) ([3]; 6 min)	Colouration of sheet (GARDNER sub-scale) ([3]; 9 min) [GARDNER degrees]	Colouration of sheet (GARDNER sub-scale) ([3]; 12 min) [GARDNER degrees]	Colouration of sheet (GARDNER sub-scale) ([3]; 15 min)	Colouration of sheet (GARDNER sub-scale) ([3]; 18 min)	other results
Sc1ccc(-c2cc3ccccc3[nH]2)cc1 [Stabilizer 1, 2-(4'-mercapto-phenyl)-indole]	> 2000	none	superiority of Stabilizer 1 over 2-phenyl-indole	1 GARDNER degrees	2 GARDNER degrees	2.5 GARDNER degrees	7	11	12 GARDNER degrees		
CSc1ccc(-c2cc3ccccc3[nH]2)cc1 [Stabilizer 3, 2-(4'-methylthio-phenyl)-indole]	> 3000	none	markedly superior to 2-phenyl-indole	1 GARDNER degrees	1 GARDNER degrees	2 GARDNER degrees	3	8	10 GARDNER degrees		
CC(=O)Oc1ccc(-c2cc3ccccc3[nH]2)cc1 [Stabilizer 4, 2-(4'-acetoxy-phenyl)-indole]	> 3000	none									
CCOC(=O)C(C)(C)Oc1ccc(-c2cc3ccccc3[nH]2)cc1 [Stabilizer 5, 2-(4'-carbethoxyisopropyloxy-phenyl)-indole]	> 3000	none	markedly superior to 2-phenyl-indole								
O=C(Oc1ccc(-c2cc3ccccc3[nH]2)cc1)c1ccccc1 [Stabilizer 6, 2-(4'-benzoyloxy-phenyl)-indole]	> 4000	none									
Nc1cccc(-c2cc3ccccc3[nH]2)c1 [Stabilizer 11, 2-(3'-amino-phenyl)-indole]			developed less rapidly than that due to 2-phenyl-indole	3 GARDNER degrees	3 GARDNER degrees	4 GARDNER degrees	5	10	12 GARDNER degrees	burnt	Colouration given to the polymer [3]: relatively intense yellow colouration
O=C(O)COc1ccc(-c2cc3ccccc3[nH]2)cc1 [Stabilizer 12, 2-(4'-carboxymethoxy-phenyl)-indole]			developed less rapidly than those due to 2-phenyl-indole	2 GARDNER degrees	2 GARDNER degrees	3 GARDNER degrees			brown	burnt	
CCOC(=O)COc1ccc(-c2cc3ccccc3[nH]2)cc1 [Stabilizer 13, 2-(4'-carbethoxymethoxy-phenyl)-indole]			markedly superior to 2-phenyl-indole	2 GARDNER degrees	2 GARDNER degrees	3 GARDNER degrees	3	9	11 GARDNER degrees	burnt	
CC(=O)Nc1ccc(-c2cc3ccccc3[nH]2)cc1 [Stabilizer 14, 2-(4'-N-acetylamino-phenyl)-indole]			slightly superior to 2-phenyl-indole	2 GARDNER degrees	2 GARDNER degrees	3 GARDNER degrees	4	8	12 GARDNER degrees	burnt	
CC(C)Sc1ccc(-c2cc3ccccc3[nH]2)cc1 [Stabilizer 17, 2-(4'-isopropylthio-phenyl)-indole]			very rapidly found to be superior to 2-phenyl-indole	1 GARDNER degrees	1 GARDNER degrees	2 GARDNER degrees	4	10	13 GARDNER degrees	burnt	Colouration of sheet (GARDNER Scale) ([4]; 0 min): 1 GARDNER degrees; Colouration of sheet (GARDNER Scale) ([4]; 6 min): 1 GARDNER degrees; Colouration of sheet (GARDNER Scale) ([4]; 12 min): 2 GARDNER degrees; Colouration of sheet (GARDNER Scale) ([4]; 18 min): 4 GARDNER degrees; Colouration of sheet (GARDNER Scale) ([4]; 24 min): 9 GARDNER degrees; Colouration of sheet (GARDNER Scale) ([4]; 30 min): 11 GARDNER degrees; Colouration of sheet (GARDNER Scale) ([4]; 36 min): 12 GARDNER degrees; Colouration of sheet (GARDNER Scale) ([4]; 42 min): 13 GARDNER degrees; Colouration of sheet (GARDNER Scale) ([4]; 48 min): 14 GARDNER degrees; Colouration of sheet (GARDNER Scale) ([4]; 54 min): burnt
Oc1ccc(-c2cc3ccccc3[nH]2)cc1 [Stabilizer 20, 2-(4'-hydroxy-phenyl)-indole]	> 3000	none	markedly superior to 2-phenyl-indole	1 GARDNER degrees	1 GARDNER degrees	2 GARDNER degrees	4	9	11 GARDNER degrees		
Nc1ccc(-c2cc3ccccc3[nH]2)cc1 [Stabilizer 22, 2-(4'-amino-phenyl)-indole]			developed less rapidly than that due to 2-phenyl-indole	2 GARDNER degrees	3 GARDNER degrees	3 GARDNER degrees	4	6	12 GARDNER degrees	burnt	Colouration given to the polymer [3]: relatively strong yellow colouration
Nc1ccccc1-c1cc2ccccc2[nH]1 [Stabilizer 23, 2-(2'-amino-phenyl)-indole]	> 2000	none	superior to 2-phenyl-indole	pink	pink	pink	4	6	12 GARDNER degrees		
O=C(Nc1ccccc1-c1cc2ccccc2[nH]1)c1ccccc1 [Stabilizer 25, 2-(2'-N-benzoylamino-phenyl)-indole]			slightly superior to 2-phenyl-indole	2 GARDNER degrees	2 GARDNER degrees	4 GARDNER degrees	6	9	12 GARDNER degrees	burnt	
c1ccc(-c2ccc(-c3cc4ccccc4[nH]3)cc2)cc1 [Stabilizer 26, 2(4'-phenyl-phenyl)-indole]			markedly superior to 2-phenyl-indole	2 GARDNER degrees	2 GARDNER degrees	3 GARDNER degrees	4	5	12 GARDNER degrees	14 GARDNER degrees	
